# Reference: paper PMC6657685, “Cloning, purification, and characterization of GH3 β-glucosidase, MtBgl85, from Microbulbifer thermotolerans DAU221” (PeerJ, 2019)
# Molecular target: T1, MtBgl85 (Microbulbifer thermotolerans, UniProt Z9ZKX7DI54)
# T1 construct: signal peptide (1-25, predicted) removed; N-terminal His6 tag (pCold I); expressed in E. coli BL21 (DE3); precursor 772 residues, mature 747 residues, 81,924 Da; about 85 kDa on SDS-PAGE; monomer
# T1 sequence (Z9ZKX7DI54 26-772): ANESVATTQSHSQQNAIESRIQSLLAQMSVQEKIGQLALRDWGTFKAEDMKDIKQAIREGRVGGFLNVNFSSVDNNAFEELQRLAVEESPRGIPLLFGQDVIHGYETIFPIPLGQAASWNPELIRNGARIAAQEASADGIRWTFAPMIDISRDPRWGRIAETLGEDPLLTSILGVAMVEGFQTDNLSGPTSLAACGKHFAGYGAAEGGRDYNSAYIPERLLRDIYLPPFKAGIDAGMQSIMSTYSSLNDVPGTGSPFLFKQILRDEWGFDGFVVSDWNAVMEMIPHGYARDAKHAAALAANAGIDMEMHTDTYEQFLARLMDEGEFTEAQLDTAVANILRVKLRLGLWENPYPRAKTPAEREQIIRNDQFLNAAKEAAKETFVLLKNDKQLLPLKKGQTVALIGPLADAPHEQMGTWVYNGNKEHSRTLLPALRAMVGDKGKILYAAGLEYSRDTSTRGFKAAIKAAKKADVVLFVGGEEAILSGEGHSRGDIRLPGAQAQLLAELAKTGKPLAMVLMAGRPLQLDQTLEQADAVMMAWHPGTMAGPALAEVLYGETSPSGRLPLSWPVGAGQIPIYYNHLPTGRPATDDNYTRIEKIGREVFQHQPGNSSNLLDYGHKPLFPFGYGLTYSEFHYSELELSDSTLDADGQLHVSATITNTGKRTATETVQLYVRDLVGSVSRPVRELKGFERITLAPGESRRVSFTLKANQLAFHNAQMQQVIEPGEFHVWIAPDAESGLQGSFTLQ
# Assay: residual activity with pNPβG
# Assay type: biochemical
# Details: read-out: % residual activity at 10 mM
smiles,measurement,value
OC[C@H]1OC(O)[C@H](O)[C@@H](O)[C@@H]1O (stereo partly shown) [glucose],remaining activity at 10000 µM,59%
